US4277489A, “1(p-Chlorobenzoyl)-5-methoxy-2-methyl indole-3-acetic acid-3-oxo-isobenzofuranyl ester and pharmaceutical use thereof” (priority 1979, dated 1981)
Where two headings read alike, the source gives them in different places.

What was measured:
Assay type in all cases: in vivo
rat [1] = assay: Ulcerogen activity in the fasted rat (autopsic examination of stomach, jejunum, large intestine and liver); conditions: 5 mg/kg
rat [2] = assay: as above; conditions: 5 mg/kg; remark: listed apart in the source
Experimental: In order to complete the picture of the possible ulcerogen activity, in the rat, of the product which is the object of this invention, a further research on the rat as against Product A, was performed.
Both the test molecules were suspended in 5% arabic gum and taken to solution.
The pharmacological treatment at the standard dose of 5 mg/kg was effected orally by means of a gastro-oesophageal probe.
The groups of animals were treated after 9, 24, 31, 50, 53, 56, 60 and 70 hours from beginning of the fasting. During the fasting period the animals received subcutaneously, 2 ml/die/animal of a 5% glucose solution in […]. The animals were sacrificed, by decapitation, at 48 and 72 hours from beginning of the fasting; there were drawn for autopsic examination, jejunum and large intestine, which were examined microscopically in order to detect the presence of any possible ulcerations.

mouse [3] = assay: Antalgic activity in the mouse: tail-compression test (Bianchi C. test); conditions: oral; for Time for which the algic stimulus is tolerated: two hours from administration, equal doses
Experimental: The time elapsing between the algic stimulus and the reaction of the mouse trying to get out of said stimulus was determined in seconds.
The measure was effected at the times 0, 1, 2, 3 hours from administation of the derivative object of the present invention (Product B) and from administration of the comparison compound (Product A).
1--two lots of control animals: 0.5 ml/animal of mucilage of 5% arabic gum;
2--one lot treated with Product A--4 mg/kg;
3--one lot treated with Product A--7 mg/kg;
4--one lot treated with Product B--4 mg/kg;
5--one lot treated with Product B--7 mg/kg.

[4] = Acute toxicity in the mouse, orally; conditions: in vivo, oral, read-out: Mortality at 10th day %
Description: (§1) Firstly, the acute and subacute toxicity in the mouse orally has been tested.
(§2) Table 1- Acute toxicity, in the mouse, of 1-(p-chlorobenzoyl)5-methoxy-2-methylindole-3-acetic acid (Product A) and of 1-(p-chlorobenzoyl) -5-methoxy-2-methylindole-3-acet-3-oxo-1-isobenzofuranyl ester derivative (Product B)

mouse [5] = assay: Acute toxicity in the mouse, orally; conditions: for Autopsical examination (gastroenteric hyperemia, ulcers): oral
Description: as §1, §2

[6] = system: paw-oedema, induced by means of sub-plantar injection of carrageenin; assay: Anti-phlogistic activity: carrageenin-induced paw-oedema in the rat; conditions: oral
Experimental: In order to show the therapeutical activity of the derivative, which is an object of this invention, a research was carried out firstly on the anti-phlogistic activity as compared with the one of Product A.
The research was carried out in the rat by using the test of paw-oedema, induced by means of sub-plantar injection of carrageenin in a 1% solution. 0.1 ml of this solution was injected to each animal.
One hour before inoculation of the oedemigenous agent, the two test drugs were administered orally (gastric probe) to the different groups, according to the experimental scheme, and contemporaneously were measured, with a base value, the volume of the right untreated paw.
The treatment was effected on lots of five male animals of average weight of 240-270 g., according to the following experimental scheme:
1--three lots of control animals: 10 ml/kg mucilage of arabic gum;
2--one lot of animals treated with Product A--5 mg/kg;
3--one lot of animals treated with Product A--5.3 mg/kg;
4--one lot of animals treated with Product A--7 mg/kg;
5--one lot of animals treated with Product B--5 mg/kg;
6--one lot of animals treated with Product B--5.3 mg/kg;
7--one lot of animals treated with Product B--7 mg/kg.

[7] = oral, sacrificed at 48 hours from beginning of fasting (3 administrations)
[8] = oral, sacrificed at 72 hours from beginning of fasting (8 administrations)

SMILES	Stomach, autopsic examination (rat [1]; [7])	Stomach, autopsic examination (rat [1]; [8])	Large intestine (caecum), autopsic examination (rat [2]; [7])	Small intestine (jejunum), autopsic examination (rat [2]; [7])	Caecum, autopsic examination (rat [2]; [8])	Jejunum, autopsic examination (rat [2]; [8])	Time for which the algic stimulus is tolerated (mouse [3]) [s]	mortality at 240 h ([4]; dose 10 mg/kg) [%]	mortality at 240 h ([4]; dose 18 mg/kg) [%]	mortality at 240 h ([4]; dose 20 mg/kg) [%]	mortality at 240 h ([4]; dose 25 mg/kg) [%]	mortality at 240 h ([4]; dose 28 mg/kg) [%]	Autopsical examination (gastroenteric hyperemia, ulcers) (mouse [5])	Stomach, autopsic examination (rat [1]; in vivo, po)	Caecum, autopsic examination (rat [2]; in vivo, po)	Liver, macroscopic and microscopic examination (rat [2]; in vivo, po)	Anti-phlogistic effect (onset and extent) compared with the comparison product [6]	Anti-phlogistic activity compared with Product A ([6]; doses being equal (5, 5.3, 7 mg/kg), within the first three hours)	Antalgic activity compared with the comparison product (mouse [3]; mouse, 4 and 7 mg/kg)	Toxic component compared with the free acid (mouse [5]; in vivo)
COc1ccc2c(c1)c(CC(=O)O)c(C)n2C(=O)c1ccc(Cl)cc1 [Product A, 1-(p-chlorobenzoyl)-5-methoxy-2-methylindole-3-acetic acid, reference compound]	Stomach diffusely hyperemic	Stomach highly hyperemic with presence of evident macroulcers	highly hyperemic	slightly hyperemic, with presence of microulcers	Caecum with hemorrhagic microareas	Jejunum diffusely hyperemic	≤ 30	40	70	90	100	100	very marked gastroenteric hyperemia with presence of numerous ulcers							
COc1ccc2c(c1)c(CC(=O)OC1OC(=O)c3ccccc31)c(C)n2C(=O)c1ccc(Cl)cc1 (stereo not shown) [Product B, 1-(p-chlorobenzoyl)-5-methoxy-2-methyl indole-3-acetic acid 3-oxo-1-isobenzofuranyl ester]						Jejunum slightly hyperemic	45	20	40	50	60	70	only a slight gastroenteric hyperemia, but no ulcer	No considerable alteration at stomach level	None at caecum level	nothing pathological resulted	remarkably more precocious, as well as more marked	signficantly more active, doses being equal, than the comparison product (Product A) within the first three hours	quite superior	lesser than the one of the free acid
